The structures appear in SMILES notation.

The text below walks through data of patent US12697325B2 (TENNOR THERAPEUTICS (SUZHOU) LIMITED, priority 2021, dated 2026).

The nature of series [1]: Pharmacokinetics in plasma and bronchoalveolar lavage fluid of female CD-1 mice. In kind it is in vivo. The settings on record: mouse, in vivo. How it is done:
An appropriate amount of the test drug was accurately weighed and mixed with the appropriate volume of vehicle (5% DMSO+0.5% Tween 80 in normal saline) to obtain a clear solution for the test in Table 9. The formulation solution for injection was prepared to sterile filtration through a 0.22 μm filter prior to administration. The mice were dosed with the drug within 30 min after the formulated solution for injection was prepared. A 1.5 mL of the formulation solution for injection was transferred into a polypropylene microcentrifuge tube for dose verification by LC/UV or LC-MS/MS.
All blood samples were transferred to pre-frozen EDTA-K2 tubes and placed on wet ice until centrifugation. […]
Plasma: approximately 100 μL of blood sample was transferred into pre-cooled commercial EDTA-K2 tubes and placed on wet ice until centrifugation. After the blood samples were centrifuged at approximately 4° C. and 3, 200 g for 10 min, plasma was collected and transferred to pre-labeled 96-well plates or polypropylene tubes, flash frozen on dry ice, and stored at ≤−60° C. until the analysis by LC-MS/MS.
Serum: approximately 100 μL of blood sample was transferred into a tube without anticoagulant and placed on wet ice for approximately 30 min and centrifuged at 4° C. and 3,000 g for 10 min, and the serum was collected and transferred into pre-labeled PP tubes placed on wet ice. After the completion of all the collections, serum samples were stored at −60° C. until being sent to the animal experimental team to determine urea concentration.
Bronchoalveolar lavage fluid (BALF): pre-cooled tracheo-alveolar lavage fluid was injected into the trachea or predefined bronchi. After a full expansion of the lung tissue, the lavage fluid was slowly drawn out with a syringe 30 s later. The lung was lavaged three times. During the last lavage, the lung tissue was gently squeezed to restore the fluid. To prevent contamination of other lung tissues, the corresponding bronchi were ligated. Both lungs of the mice were perfused with 0.8 mL.
[…] Approximately 200 μL of the BALF samples were transferred into a polypropylene tube, rapidly frozen on dry ice, maintained at ≤−60° C., and sent to the animal experimental team to determine urea concentration. The remaining BALF samples (approximately 600 μL) were rapidly frozen on dry ice and maintained at ≤−60° C. until being submitted for drug concentration analysis by LC-MS/MS.

Series [2] deals with clinical strains of Acinetobacter baumannii. In words: Minimum inhibitory concentration (CLSI M07), Example 1, clinical strains. In kind it is cell-based. The settings on record: combination MIC = sum of the concentrations of the two compounds. How it is done: (§1) The minimum inhibitory concentration (MIC) was determined in accordance with the requirements of the Clinical and Laboratory Standards Institute (CLSI) M07 (for aerobic bacteria).
3.1 The compounds were diluted with water up to 100 times of the highest concentration tested.
The dilution steps are as follows: first dilute the compounds or antibiotics to 100 times of the highest final concentration tested, and then:
A 50 μL of sterile water and 50 μL of avibactam sodium mother liquid were added into the A row of the second 96-well plate, and 50 μL of water was added into each of the remaining wells. A 50 μL of liquid was pipetted from the A row and added into the B row; after being pipetted up and down to even, 50 μL of the solution was pipetted and added to the C row, and diluted in a 2-fold gradient in turn for a total of 6 times and then, 50 μL was removed from each well of the G row to obtain the compound solution diluted to a 2-fold gradient and then 4 μL was transferred to a 96-well test plate.
Aerobic bacteria: the strains were inoculated on MHA one day in advance and incubated overnight at 37° C. On the day of the assay, 5-6 single colonies were picked and suspended evenly in saline, and the bacterial concentration was adjusted to the turbidity of 0.5 McFarland standard (concentration is about 1×10^8 CFU/mL). The bacterial suspension was diluted 200 times with the corresponding liquid culture medium (Table 1), i.e., at a bacterial concentration of ~5×10^5 CFU/ml, then 192 μL was transferred to a 96-well round bottom plate to obtain the test plate. Then, the 96-well round bottom plate obtained above was placed into an incubator at 37° C. and 85% humidity to incubate for 20 h.

Series [3] relates to Acinetobacter baumannii strains. In words: Minimum inhibitory concentration (CLSI M07), Example 2, 20 strains. In kind it is cell-based. The settings on record: for MIC of the strain BAA-1795 (component in the combination): sulbactam/avibactam 4:1, concentration of the named component. The procedure: as §1
3.1 The compounds were diluted with DMSO up to 100 times of the highest concentration tested.
The steps of manual dilution are as follows (example): firstly, the compound or antibiotic was diluted to 100 times of the maximum final concentration tested, then 60 μL of compound mother liquor was added to the first column of the 96-well plate, and 30 μL of DMSO was added to each well in the second to the 12th column; 30 μL of the liquid was transferred from the first column to the second column. After being pipetted up and down to even, 30 μL was transferred to the third column, and was diluted in sequence at a 2-fold gradient for a total of 10 times; then 30 μL was removed from each well in the 11th column, then a compound solution diluted at 2-fold gradient was obtained and 1 μL was transferred to a 96-well test plate.
Aerobic bacteria: the strains were inoculated on MHA one day in advance and incubated overnight at 37° C. On the day of the assay, 5-6 single colonies were picked and suspended evenly in saline, and the bacterial concentration was adjusted to the turbidity of 0.5 McFarland standard (concentration is about 1×10^8 CFU/mL). The bacterial suspension was diluted at 200-fold with the corresponding liquid culture medium (Table 1), i.e., the bacterial concentration was ~5×10^5 CFU/ml, and then 100 μL of the liquid was transferred to a 96-well round bottom plate (the 96-well plate with compound prepared in 4.2, Echo method) to obtain the test plate. If the compound was manually diluted, then 99 μL of the solution was transferred into a 96-well round bottom plate. The 96-well round bottom plate obtained above was placed into an incubator at 37° C. and 85% humidity to incubate for 20 h.

For series [4] the following is noted: 2 g, q8 h via infusion for 3 h; cited from earlier work.
For series [5] the following is noted: cited from earlier work.

With `NC(=O)[C@@H]1CC[C@@H]2CN1C(=O)N2OS(=O)(=O)[O-].[Na+]` [Avibactam sodium, avibactam sodium], the “AUC Ratio” value in series [1] is recorded as 0.0257. Also, in series [1], the “Part of the dosing interval with free plasma concentration above the MIC of strain BAA-1795” value is on record as “more than 50%”. Besides, the “Part of the dosing interval with plasma concentration above the MIC of strain BAA-1795” value in series [1] is “more than 50%”. Further, in series [1] (iv, 150 mg/kg), the “AUC0-last, BALF” value came out at 1319 ng·h/mL. Besides, the “AUC0-last, plasma” value in series [1] (iv, 150 mg/kg) was determined as 51289 ng·h/mL. The Cl in series [1] (iv, 150 mg/kg) is listed as 48.7 mL/min/kg. Also, the “MRT0-last, BALF” value in series [1] (iv, 150 mg/kg) amounted to 103 min. For the same compound, the “MRT0-last, plasma” value in series [1] (iv, 150 mg/kg) was 26.3 min. In addition, the “T1/2, BALF” value in series [1] (iv, 150 mg/kg) came to 45.7 min. In addition, the “T1/2, plasma” value in series [1] (iv, 150 mg/kg) worked out at 73.8 min. In addition, the MIC50 in series [2] is more than 32 µg/mL; in series [3] (Example 2, 20 strains), more than 128 µg/mL. Further, the MIC90 in series [2] is more than 32 µg/mL; in series [3] (Example 2, 20 strains), more than 128 µg/mL. The MIC range in series [2] is more than 32 µg/mL; in series [3] (Example 2, 20 strains), more than 128 µg/mL. Moreover, the MIC in series [3] (strain ARLG-1791), in series [3] (strain ARLG-1809), in series [3] (strain ARLG-1852), in series [3] (strain ARLG-1853), in series [3] (strain ARLG-1881) and in series [3] (strain ATCC 17978) was more than 128 µg/mL each time. Further, the MIC in series [3] (strain ATCC 19606), in series [3] (strain ATCC-BAA-1605), in series [3] (strain ATCC-BAA-1789), in series [3] (strain ATCC-BAA-1790), in series [3] (strain ATCC-BAA-1791) and in series [3] (strain ATCC-BAA-1792) was more than 128 µg/mL throughout. Also, the MIC in series [3] (strain ATCC-BAA-1793), in series [3] (strain ATCC-BAA-1794), in series [3] (strain ATCC-BAA-1795), in series [3] (strain ATCC-BAA-1796), in series [3] (strain ATCC-BAA-1797) and in series [3] (strain ATCC-BAA-1798) was more than 128 µg/mL throughout. Further, the MIC in series [3] (strain ATCC-BAA-1799) and in series [3] (strain ATCC-BAA-1800) was more than 128 µg/mL each time. The “MIC of the strain BAA-1795 (component in the combination)” value in series [3] was 2 µg/mL.
For the compound `CC1(C)[C@H](C(=O)O)N2C(=O)C[C@H]2S1(=O)=O` [Sulbactam, (2S, 5R)-3,3-dimethyl-7-oxo-4-thia-1-azabicyclo [3.2.0] heptane-2-carboxylic acid 4,4-dioxide], in series [4], the “Part of the dosing interval with plasma concentration above 2 μg/mL” value is given as 44% and the “Part of the dosing interval with plasma concentration above 4 μg/mL” value is 19%. Moreover, in series [5], the Protein binding result is on record as “approximately 5.2%”. Also, the “MIC of the strain BAA-1795 (component in the combination)” value in series [3] is 8 µg/mL. Besides, the “MIC90 of the single component in the combination” value in series [3] (sulbactam sodium:avibactam sodium = 4:1, concentration of the named component) was determined as 16 µg/mL. Besides, the “MIC50 of the single component in the combination” value in series [3] (sulbactam sodium:avibactam sodium = 4:1, concentration of the named component, Examples 1 and 2) stood at 8 µg/mL.

The MIC50 is an inhibitory concentration at the 50% level, which refers to growth in some studies and to a panel of isolates in others. Broadly, the MIC90 is the lowest concentration that inhibits either 90% of growth or 90% of the strains tested, depending on the study. Usually MIC stands for the lowest concentration found to suppress growth. Low values mean greater potency, high ones weaker potency.
